Test results taken from patent US8609661B2, “Pyrimido-pyrrolo-quinoxalinedione inhibitors of cystic fibrosis transmembrane conductance regulator protein and uses therefor” (The Regents of the University of California, priority 2009, dated 2013).

How the values were obtained:
Assay type in all cases: cell-based
human wildtype CFTR [1] = target: T1, human wildtype CFTR (Homo sapiens, UniProt P13569); experiment: Fluorescence platereader assay of CFTR-mediated iodide influx (YFP quenching) in FRT cells
T1 construct: expressed in transfected cells; host or cells: Fischer rat thyroid (FRT) cells
T1 sequence (P13569 whole entry): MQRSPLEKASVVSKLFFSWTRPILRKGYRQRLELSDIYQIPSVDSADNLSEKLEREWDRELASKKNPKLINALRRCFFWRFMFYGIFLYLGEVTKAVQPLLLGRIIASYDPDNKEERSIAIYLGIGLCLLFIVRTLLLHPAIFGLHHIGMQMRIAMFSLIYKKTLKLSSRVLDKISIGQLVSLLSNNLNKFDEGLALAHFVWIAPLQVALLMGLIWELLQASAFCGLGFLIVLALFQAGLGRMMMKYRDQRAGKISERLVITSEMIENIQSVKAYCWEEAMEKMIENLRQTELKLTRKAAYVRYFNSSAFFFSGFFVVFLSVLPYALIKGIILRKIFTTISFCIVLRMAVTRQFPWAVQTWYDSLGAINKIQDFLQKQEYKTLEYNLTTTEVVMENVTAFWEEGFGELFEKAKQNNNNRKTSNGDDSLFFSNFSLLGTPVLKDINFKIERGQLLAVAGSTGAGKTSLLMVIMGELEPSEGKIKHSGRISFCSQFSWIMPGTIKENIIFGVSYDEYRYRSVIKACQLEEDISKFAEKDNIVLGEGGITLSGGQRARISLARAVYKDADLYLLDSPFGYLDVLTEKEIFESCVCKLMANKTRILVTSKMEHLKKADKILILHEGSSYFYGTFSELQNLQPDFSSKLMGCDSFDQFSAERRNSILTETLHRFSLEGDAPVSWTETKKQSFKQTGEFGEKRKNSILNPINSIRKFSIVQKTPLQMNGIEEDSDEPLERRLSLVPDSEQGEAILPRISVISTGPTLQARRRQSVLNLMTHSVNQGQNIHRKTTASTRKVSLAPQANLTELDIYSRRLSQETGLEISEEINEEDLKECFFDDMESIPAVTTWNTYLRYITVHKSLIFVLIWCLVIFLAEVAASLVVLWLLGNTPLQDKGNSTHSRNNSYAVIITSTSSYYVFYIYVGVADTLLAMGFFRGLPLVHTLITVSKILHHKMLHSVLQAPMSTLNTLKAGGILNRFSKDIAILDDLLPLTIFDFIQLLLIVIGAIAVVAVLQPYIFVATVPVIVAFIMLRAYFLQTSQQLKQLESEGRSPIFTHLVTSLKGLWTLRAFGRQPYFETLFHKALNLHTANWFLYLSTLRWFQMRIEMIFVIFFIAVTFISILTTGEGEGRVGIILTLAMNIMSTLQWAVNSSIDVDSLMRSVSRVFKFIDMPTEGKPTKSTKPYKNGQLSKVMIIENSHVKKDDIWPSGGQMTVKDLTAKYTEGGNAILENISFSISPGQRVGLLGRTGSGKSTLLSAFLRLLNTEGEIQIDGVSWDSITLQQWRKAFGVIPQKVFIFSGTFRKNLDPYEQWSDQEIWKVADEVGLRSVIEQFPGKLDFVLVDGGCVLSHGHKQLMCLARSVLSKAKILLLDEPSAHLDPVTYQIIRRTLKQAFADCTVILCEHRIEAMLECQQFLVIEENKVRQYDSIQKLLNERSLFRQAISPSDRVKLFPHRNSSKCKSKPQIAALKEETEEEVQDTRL
How it was run: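 Fischer rat thyroid cells co-expressing human wildtype CFTR and the YFP-H148Q/1152L halide sensor were seeded at 20,000 cells per well in 96-well black-walled plates and assayed 48 h later at confluence. After PBS washes and a 15 min incubation, CFTR was maximally activated with an agonist mixture. Fluorescence was recorded for 2 s before and 10 s after adding 160 μL iodide-substituted PBS, and iodide influx rates came from non-linear regression.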

[2] = tested on: calcium-activated chloride channels; experiment: UTP-induced chloride currents in cystic fibrosis (CFTR-deficient) human bronchial epithelial cells; details: 10 or 20 μM; UTP 100 μM
Description: (§1) FIG. 3A: Apical membrane current measured in CFTR-expressing FRT cells in the presence of a transepithelial chloride gradient and with amphotericin B permeabilization of the basolateral membrane. CFTR was activated by CPT-cAMP (chlorophenylthio-cAMP) (100 μM), with increasing concentrations of PPQ-102 added as shown. Left: Original recording. Right: Dose-response (S.E. n=4). FIG. 3B: Measurements as in FIG. 3A, but with apigenin (100 μM) or IBMX (100 μM) as agonists. The data are representative of 3 sets of experiments. FIG. 3C: Short-circuit current measured in T84 (left) and human bronchial airway epithelial cells (right). CFTR was maximally activated by 10 μM forskolin and 100 μM IBMX (‘forsk’). Current in the absence of inhibitor is indicated as ‘control.’ FIG. 3D: Calcium-activated chloride channels were activated by UTP (100 μM) in cystic fibrosis (CFTR-deficient) human bronchial epithelial cells, with PPQ-102 added as indicated. ENaC (epithelial sodium channel) was inhibited by amiloride (10 μM). FIG. 3E: Cellular cAMP assayed in CHO—K1 cells under basal conditions and after addition of 20 μM forskolin (S.E. n=4, differences with PPQ-102, not significant).

cellular cAMP production = experiment: Cellular cAMP assayed in CHO-K1 cells, basal and forskolin-stimulated; details: 10 μM; 20 μM forskolin
Description: as §1

human wildtype CFTR [3] = target: T1, human wildtype CFTR; experiment: Whole-cell patch-clamp in CFTR-expressing FRT cells; details: 0.5 μM; voltage-independent block
Description: D. Patch-Clamp Analysis—Whole cell recordings were performed using FRT cells stably expressing human wildtype CFTR. The pipette solution contained 140 mM N-methyl D-glucamine chloride (NMDG-Cl), 5 mM EGTA, 1 mM MgCl2, 1 mM Tris-ATP, and 10 mM HEPES (pH 7.2), and the bath solution contained 140 mM N-methyl D-glucamine chloride, 1 mM CaCl2, 1 mM MgCl2, 10 mM glucose and 10 mM HEPES (pH 7.4). Experiments were performed at room temperature (22-25° C.). Pipettes were pulled from borosilicate glass and had resistances of 3-5 Mohm after fire polishing. […] After establishing the whole-cell configuration, CFTR was activated by adding forskolin and 3-isobutyl-1-methylxanthine (IBMX). Whole cell currents were elicited by applying hyperpolarizing and depolarizing voltage pulses from a holding potential of 0 mV to potentials between −100 mV and +100 mV in steps of 20 mV. Current was filtered at 5 kHz and digitized and analyzed using an AxoScope 10.0 system and a Digidata® 1440A AC/DC converter (Molecular Devices, Sunnyvale, Calif.). The single channel characteristics of CFTR were analyzed in the cell-attached configuration using fire-polished pipettes with a resistance of 10-15 Mohm. […] Single channel data were digitally filtered at 25 Hz, and analyzed using Clampfit 10.0 software (Axon Instruments).

human wildtype CFTR [4] = target: T1, human wildtype CFTR; experiment: Single-channel cell-attached patch recordings of CFTR; details: 1 μM
Description: D. Patch-Clamp Analysis—Whole cell recordings were performed using FRT cells stably expressing human wildtype CFTR. The pipette solution contained 140 mM N-methyl D-glucamine chloride (NMDG-Cl), 5 mM EGTA, 1 mM MgCl2, 1 mM Tris-ATP, and 10 mM HEPES (pH 7.2), and the bath solution contained 140 mM N-methyl D-glucamine chloride, 1 mM CaCl2, 1 mM MgCl2, 10 mM glucose and 10 mM HEPES (pH 7.4). Experiments were performed at room temperature (22-25° C.). Pipettes were pulled from borosilicate glass and had resistances of 3-5 Mohm after fire polishing. […] After establishing the whole-cell configuration, CFTR was activated by adding forskolin and 3-isobutyl-1-methylxanthine (IBMX). Whole cell currents were elicited by applying hyperpolarizing and depolarizing voltage pulses from a holding potential of 0 mV to potentials between −100 mV and +100 mV in steps of 20 mV. Current was filtered at 5 kHz and digitized and analyzed using an AxoScope 10.0 system and a Digidata® 1440A AC/DC converter (Molecular Devices, Sunnyvale, Calif.). The single channel characteristics of CFTR were analyzed in the cell-attached configuration using fire-polished pipettes with a resistance of 10-15 Mohm. The pipette solution contained (in mM): 140 NMDG-Cl, 1 CaCl2, 1 MgCl2, 5 glucose and 10 HEPES (pH 7.4), and the bath solution contained 140 KCl, 1 CaCl2, 1 MgCl2, 5 glucose and 10 HEPES (pH 7.4). Recordings were performed at room temperature using an Axopatch-200B (Axon Instruments, Foster City, Calif.). The voltage and current data were low-pass filtered at 1 kHz and stored for later analysis. Single channel data were digitally filtered at 25 Hz, and analyzed using Clampfit 10.0 software (Axon Instruments).
Cell-attached patch recordings were performed to examine single-channel CFTR function.

## Cc1ccc(C2Nc3ccccc3-n3c(-c4ccccc4)c4c(=O)n(C)c(=O)n(C)c4c32)o1 (racemic) [PPQ-102, 7,9-Dimethyl-11-phenyl-6-(5-methylfuran-2-yl)-5,6-dihydro-pyrimido[4′,5′-3,4]pyrrolo[1,2-a]quinoxaline-8,10-(7H,9H)-dione]
Human wildtype CFTR [1]; FRT, Table 2, screening, 5 μM, read-out: % Inhibition at 5 μM
  inhibition at 5 µM: 85%
Human wildtype CFTR [1]; FRT, Table 2, screening, 25 μM, read-out: % Inhibition at 25 μM
  inhibition at 25 µM: 97%
Human wildtype CFTR [1]; apparent IC50 from concentration-inhibition data, fluorescence platereader assay
  IC50: 800 nM
[2]
  inhibition of UTP-induced chloride currents: little inhibition
Cellular cAMP production
  effect on basal or forskolin-stimulated cAMP production: no significant effect
Human wildtype CFTR [3]
  CFTR current-voltage relationship after addition: remained linear
Human wildtype CFTR [4]
  Mean channel open time: did not significantly change
  mean channel closed time: greatly increased
Human wildtype CFTR [4]; control 0.50±0.04, forskolin and IBMX, +80 mV
  Channel open probability (Po): 0.14±0.03
Human wildtype CFTR [4]; control 7 pS at +80 mV
  unitary conductance: did not change
